Results: patent publication US20040005294A1, “IGFBP-3 in the diagnosis and treatment of cancer” (priority 2002, published 2004)

Tests used:
[1] = tested on: JNK in 1799 cells; assay: Immune complex kinase assay for JNK; type: cell-based, human; conditions: 10^−7 M
Protocol: Approximately 5×10^6 1799 cells were treated with 10^−7 M deguelin or 0.1% DMSO for various time periods in the absence of any additional stimulatory growth factors. The cells were then treated with 50 ng/mL IGF-I for 15 minutes to activate MAPK. Total cell extracts were prepared in lysis buffer (Lonardo et al. 2002), and ERK-1/2 or c-Jun N-terminal kinase (JNK) were immunoprecipitated from 100 μg of each cell extract using antibodies (1 μg) that recognize ERK1/2 or JNK (Santa Cruz Biotechnology) and protein-A sepharose beads (20 μL) (Amersham Pharmacia Biotech). Kinase assays were performed by incubating the beads with 30 μL of kinase buffer to which 5 μCi of [γ^32P]ATP (2000 cpm/pmol) and 1 μg of substrate (myelin basic protein [MBP; Calbiochem, La Jolla, Calif.] or GST-cJun [Santa Cruz Biotechnology]) were added, as previously described (Lee et al., 2002). The samples were suspended in Laemmli buffer, boiled for 5 min, and then analyzed by SDS-polyacrylamide gel clectrophoresis. The gel was dried and autoradiographed. Total cell lysates from Jurkat cells (Upstate Biotechnology, Inc.) and H1299 NSCLC treated with 50 ng/mL IGF-I for 15 min were used as positive controls. Changes in the level of phosphorylation in MBP or GST-cJun reflect changes in Erk1/2 and JNK activity, respectively.

[2] = tested on: PI3K in 1799 cells; assay: PI3K assay of immunoprecipitates; type: cell-based, human; conditions: 10^−7 M, IGF-I activated
Protocol: Approximately 5×10^6 1799 cells were treated with 10^−7 M deguelin or 0.1% DMSO for different time periods (0-24 h) in the absence of any additional stimulatory growth factors. PI3K in these cells was then activated by treatment with 50 ng/mL IGF-I for 15 min. Cells were lylsed, and PI3K was immunoprecipitated from 500 μg of total cell extracts with 5 μL of rabbit antibody against full-length rat p85 PI3K (Upstate Biotechnology, Inc.), which coprecipitates the p110 catalytic subunit of PI3K, and 20 μL of protein A-sepharose beads (Amersham Pharmacia Biotech). PI3K activity in the immunoprecipitates was analyzed using bovine brain extract (Type I; Sigma-Aldrich), which contains a mixture of phosphatidylinositol, phosphatidylinositol 4-phosphate, and phosphatidylinositol 4,5-bisphosphate as a substrate, as described (Hsu et al., 2000). Jurkat cell lysates (Upstate Biotechnology, Inc.) and IGF-I-activated […] NSCLC cell lysates were used as positive controls.

In the case of COc1cc2c(cc1OC)[C@@H]1C(=O)c3ccc4c(c3O[C@@H]1CO2)C=CC(C)(C)O4 [deguelin, Deguelin], the JNK activity [1] is reported as “not affected” and the “decrease in PI3K activity compared with untreated cells” value [2] is reported as “approximately 55%”.
